Results taken from the NIST ThermoML archive (doi:10.1021/acs.jced.7b00008).
Numbers after ± are expanded uncertainties.

Details: Liquid, Ebulliometric method (Recirculating still)

Row | vapor or sublimation pressure (475.01 K) | vapor or sublimation pressure (488.81 K) | vapor or sublimation pressure (499.14 K) | SMILES | vapor or sublimation pressure (420.11 K) | vapor or sublimation pressure (432.89 K) | vapor or sublimation pressure (442.63 K)
1 | 20 ± 0.6 kPa | 30 ± 0.6 kPa | 40 ± 0.6 kPa | O=C1CCC(=O)O1 [succinic anhydride] |  |  | 
2 |  |  |  | O=C1CCCO1 [γ-butyrolactone] | 20 ± 0.6 kPa | 30 ± 0.6 kPa | 40 ± 0.6 kPa
